Experimental data reported in US8153631B2, “Triazole compounds and uses related thereto” (Amgen Inc., priority 2003, dated 2012).

Target: T1, human HSD1 (recombinant HSD1) (Homo sapiens, UniProt P28845)
T1 construct: made in house
Assay: In vitro HSD1 activity inhibitory action, SPA of cortisone to cortisol conversion
Assay type: biochemical
Details: recombinant human HSD1 0.1 μg/ml, 500 μM NADPH, 16 nM 3H cortisone, room temperature 90 min, read-out: hHSD1 IC50
Method in brief: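 Baculovirus-expressed recombinant HSD1 (0.1 μg/ml) with 500 μM NADPH and 16 nM ³H-cortisone in 0.1% BSA/PBS, 90 min at room temperature. Stopped with anti-cortisol antibody, SPA beads and carbenoxolone, read after overnight incubation. Inhibition scaled between DMSO (0%) and 50 μM carbenoxolone (100%); IC50 by curve fitting.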

T1 sequence (P28845 whole entry): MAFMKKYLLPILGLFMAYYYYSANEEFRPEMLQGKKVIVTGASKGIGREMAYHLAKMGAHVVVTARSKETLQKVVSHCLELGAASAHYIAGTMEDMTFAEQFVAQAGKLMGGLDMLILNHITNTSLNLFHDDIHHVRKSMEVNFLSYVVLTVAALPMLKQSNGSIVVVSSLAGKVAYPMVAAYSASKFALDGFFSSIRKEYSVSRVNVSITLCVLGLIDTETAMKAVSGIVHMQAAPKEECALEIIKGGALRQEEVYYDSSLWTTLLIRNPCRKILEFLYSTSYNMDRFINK

| Compound | IC50 [nM] |
| --- | --- |
| Cn1c(C2CCN(c3c(Cl)cncc3Cl)CC2)nnc1C1(c2ccccc2)CCNCC1 [Ex. 1-16] | 10 to 1000 |
| Cn1c(C2CCN(Cc3ccc(Cl)cc3Cl)CC2)nnc1C1(c2ccccc2)CC1 [Ex. 1-12] | 10 to 1000 |
| Cn1c(-c2ccc(N3CCNC3=O)cc2Cl)nnc1C1(c2ccccc2)CC1 [Ex. 1-39] | < 10 |
| CONC(=O)Nc1ccc(-c2nnc(C3(c4ccc(F)cc4)CC3)n2C)c(Cl)c1 [Ex. 1-152] | < 10 |
| CC(C)n1c(-c2ccc(N3CCOC3=O)cc2)nnc1C1(c2ccc(F)cc2)CC1 [Ex. 1-149] | < 10 |
| COCCOC(=O)C1CCN(c2ccc(-c3nnc(C4(c5ccccc5)CC4)n3C)c(Cl)c2)CC1 [Ex. 1-62] | < 10 |

The remaining lines, values ahead:

| IC50 [nM] | Compound |
| --- | --- |
| 10 to 1000 | Cn1c(N2CCC(Oc3ncc(Cl)cc3Cl)CC2)nnc1C1(c2ccc(Cl)cc2)CC1 [Ex. 2-29] |
| 10 to 1000 | Cn1c(N2CCC(C(=O)O)CC2)nnc1C1(c2ccccc2)CC1 [Ex. 2-5] |
